Test results taken from patent US20130072563A1, “PERACID AND 2-HYDROXY ORGANIC ACID COMPOSITIONS AND METHODS FOR SANITATION AND DISEASE PREVENTION” (Fresh Express Incorporated, priority 2009, published 2013).

Columns and labels:
[1] = cited from earlier work
E. coli K12 [2] = assay: Attached cells challenge test, Romaine; assay type: cell-based
E. coli K12 [3] = assay: Attached cells challenge test, Spinach; assay type: cell-based; conditions: LA 0.0%
[4] = 40° C.; cited from earlier work
[5] = tested on: Lactobacillus plantarum 14917; assay: Suspended Cells Challenge Test at 20 s residence time with no surfactant; assay type: cell-based; conditions: Lactic Acid 0 ppm
Description: The experimental treatment groups were tap water, chlorinated water, a FE sanitizer wash water (FE, FE sanitizer, a solution of peroxyacetic acid and lactic acid, as further specified in a given experiment).
The experimental protocol was as follows: • 1. Transfer 1.00 mL of a ˜10^8cfu/g Lactobacillus plantarum (ATCC 14917) stock culture into a test tube containing 9.00 mL of treatment test solution • 2. Vortex the mixture for 15 s • 3. Stop the reaction by transferring 1 mL of the treated samples to 9 mL of Butterfield Phosphate Buffer • 4. Enumerate viable residual cells through serial dilutions and spread plating with 1-mL transfers • 5. […] Repeat Steps 1 to 5 two more times • 7. Repeat Steps 1 to 6 with flume water • 8. Repeat Steps 1 to 6 with chlorinated water • 9. Repeat Steps 1 to 8 with various levels of FE • 10. Repeat Steps 1 to 8 with various levels of lactic acid • 11. Repeat Steps 1 to 8 with various levels of peroxyacetic acid • 12. Repeat Steps 1 to 11 with Listeria innocua (ATCC33090)
Estimation of Log Reductions • 1. Log […] is a measure of the percent of microorganisms that are inactivated during the disinfection process and is defined as Log Inactivation=Log10 (No/NT) where No is the initial influent concentration of viable microorganisms; NT is the concentration of surviving microorganisms. As M cfu/g=microbial population of stock culture; W cfu/g=microbial population in solution of “Water Treatment” and X cfu/g=microbial population in solution of “X Treatment,” the Log reduction caused by “Treatment X”=Log (w/x)

[6] = Depletion of sanitizer wash water by diced Romaine Lettuce, commercial scale test; assay type: physicochemical; conditions: 38 to 40 F.
Description: (§1) These experiments evaluated the consumption or depletion of peroxyacetic acid when used to wash produce.
(§2) Treatments: chlorinated water, peroxyacetic acid wash water, and FE sanitizer wash water
(§3) Temperature: 38 to 40° F.
(§4) Produce: 1.5″×2″ diced Romaine lettuce
(§5) A. Determination of the amount of Romaine Lettuce that could deplete 600 gallons of peroxyacetic acid wash water. • 1. Perform full sanitization on the Pilot Line System. • 2. Fill the 2nd flume tank, 2″ reservoir, and 2″ filtering tank with tap water. • 3. Recycle the water through the system until the water in the system is being cooled down to 40° F. • 4. Calibrate the Prominent System and use the Prominent System to monitor the concentration of PAA in the wash water. • 5. Add the PAA to the 2nd filtering tank until the target processing limit is reached. • 6. Dice the Romaine Lettuce via the translicer. • 7. Collect the 2″33 2″ diced Romaine in totes. • 8. Record the weight of each tote prior to transferring it to the 2nd flume. • 9. Collect three untreated bags of Romaine Lettuce from each bin (1 top, 1 middle, and 1 bottom). • 10. Collect three treated bags of Romaine Lettuce at the end of F2 (1 beginning, 1 middle, and 1 end of the bin). • 11. Place white totes at the bottom of the locations with water spill. Return the spilt water back into the flume tank as needed. • 12. Place white totes at the bottom outlets of the centrifuge to collect liquid that would be spin off from the leaves. Return the collected water back into the flume tank as needed. • 13. Repeat Steps ‘e’ to ‘k’ for the rest of the bins till the FE concentrations fall below the lowest processing limits. • 14. Enumerate the microbial population (APC and Yeast and mold) on the collected samples.
B. Determination of the Amount of Romaine Lettuce that Could Deplete 600 gallons of FE Wash Water • 1. Perform full sanitization on the Pilot Line System. • 2. Fill the flume tank, 2″ flume tank, 1st reservoir, 2nd reservoir, 1st filtering tank, and 2nd filtering tank with tap water. • 3. Recycle the water through the system until the water in the system is being cooled down to 40° F. • 4. Switch on the by-passes for the 1st and 2″ flume tank systems so that water would not be going through the filtering systems but only recycling from the flume tank to its associate reservoir continuously. • 5. Add the chemical ingredients to both tank until the target processing limit is reached. • 6. Verify the concentration of FE by the probe of the Prominent Monitoring System at the 1st flume tank (F1), 1^St Reservoir (R1), 2nd Flume tank (F2), and the 2nd Reservoir (R2). • 7. Collect water samples from F1 and F2. • 8. Assemble the Romaine Lettuce Bins next to the dumpster. • 9. Transfer whole Romaine Lettuce leaves from the bin to the conveyor. • 10. Ensure that the lid above the F1 is closed. Turn the “ON/OFF” switch of the translicer to “ON”. • 11. Turn the conveyor for transferring leaves into the translicer to “ON”. • 12. Ensure that the chopped Romaine are delivered evenly into the flume tank without aggregation and clumping. • 13. Collect three untreated bags of Romaine Lettuce from each bin (1 top, 1 middle, and 1 bottom). • 14. Collect three treated bags of Romaine Lettuce at the end of F2 (1 beginning, 1 middle, and 1 end of the bin). • 15. Verify the pH, temperature, and the concentration of FE at the 1st flume tank (F1), 1st Reservoir (R1), 2nd Flume tank (F2), and the 2nd Reservoir (R2) before and after processing a bin. • 16. Place white totes at the bottom of the locations with water spill. Return the spilt water back into the flume tank as needed. • 17. Place white totes at the bottom outlets of the centrifuge to collect liquid that would be spin off from the leaves. Return the collected water back into the flume tank as needed. • 18. Repeat Steps ‘e’ to ‘o’ for the rest of the bins till the FE concentrations fall below the lowest processing limits. • 19. […]

[7] = tested on: indigenous microorganisms (Aerobic Plate Counts); assay: Reduction of indigenous microorganisms on Romaine, commercial scale test; assay type: cell-based; conditions: 73-84 ppm peroxyacetic acid, no lactic acid
Description: as §1, §2, §3, §4
as §5, with “Place white totes at the bottom outlets of the centrifuge to collect liquid that would be spin off from the leaves. Return the collected water back into the flume tank as needed. • 13. Repeat Steps ‘e’ to ‘k’ for the rest of the bins till the FE concentrations fall below the lowest processing limits. • 14. Enumerate the microbial population (APC and Yeast and mold) on the collected samples.” left out

[8] = 600 gallons, Diced Romaine Lettuce
[9] = Cumulative Wt. of Diced Romaine added 0.0 lb, 600 gallons
[10] = Cumulative Wt. of Diced Romaine added 55.2 lb, 600 gallons
[11] = Cumulative Wt. of Diced Romaine added 114.9 lb, 600 gallons
[12] = Cumulative Wt. of Diced Romaine added 157.2 lb, 600 gallons
[13] = Cumulative Wt. of Diced Romaine added 207.7 lb, 600 gallons
[14] = Cumulative Wt. of Diced Romaine added 272.9 lb, 600 gallons
[15] = Cumulative Wt. of Diced Romaine added 325.8 lb, 600 gallons
[16] = Cumulative Wt. of Diced Romaine added 371.3 lb, 600 gallons
[17] = Cumulative Wt. of Diced Romaine added 424.7 lb, 600 gallons
[18] = Cumulative Wt. of Diced Romaine added 502.6 lb, 600 gallons
[19] = Cumulative Wt. of Diced Romaine added 565.0 lb, 600 gallons
[20] = Cumulative Wt. of Diced Romaine added 629.0 lb, 600 gallons
[21] = Cumulative Wt. of Diced Romaine added 697.1 lb, 600 gallons
[22] = Cumulative Wt. of Diced Romaine added 762.7 lb, 600 gallons
[23] = Cumulative Wt. of Diced Romaine added 826.6 lb, 600 gallons
[24] = Cumulative Wt. of Diced Romaine added 896.2 lb, 600 gallons
[25] = Cumulative Wt. of Diced Romaine added 949.9 lb, 600 gallons

Structure (SMILES): [O][Cl+][O-] [Chlorine Dioxide]
- Oxidation Capacity [1]: 1.57 eV

Structure (SMILES): CC(O)C(=O)O (stereo not shown) [Lactic acid, lactic acid]
- Log reduction, attached cells (E. coli K12 [2]; PAA 0 ppm, LA 1.2%): 1.28

Structure (SMILES): CC(=O)OO [Peroxyacetic acid, peroxyacetic acid]
- Log reduction, attached cells (E. coli K12 [2]; PAA 80 ppm, LA 0.0%): 1.18
- Log reduction, attached cells (E. coli K12 [3]; PAA 70 ppm): 1.33
- Log reduction, attached cells (E. coli K12 [3]; PAA 80 ppm): 2.46
- apparent equilibrium constant Kap [4]: about 2.21
- log reduction of suspended cells ([5]; Peroxyacetic acid 70 ppm): 4.52 log10
- log reduction of suspended cells ([5]; Peroxyacetic acid 75 ppm): 5.59 log10
- log reduction of suspended cells ([5]; Peroxyacetic acid 80 ppm): 5.59 log10
- Oxidation Capacity [1]: 1.81 eV
- Pounds of Romaine treated ([6]; 600 gallons of sanitizer): 949.90 lb
- Depletion of PA ([6]; 600 gallons): 0.000013 lb of PA per lb of Romaine
- Amount of PA (PAA) consumed [6, 8]: 11.7 ppm
- Pounds of PA (PAA) consumed [6, 8]: 0.01208 lb
- PA (ppm) in wash water [6, 9]: 84.8 ppm
- Peroxide (ppm) in wash water [6, 9]: 7.5 ppm
- PA (ppm) in wash water [6, 10]: 83.3 ppm
- Peroxide (ppm) in wash water [6, 10]: 7.4 ppm
- PA (ppm) in wash water [6, 11]: 82.7 ppm
- Peroxide (ppm) in wash water [6, 11]: 7.4 ppm
- PA (ppm) in wash water [6, 12]: 82.4 ppm
- Peroxide (ppm) in wash water [6, 12]: 7.4 ppm
- PA (ppm) in wash water [6, 13]: 82.0 ppm
- Peroxide (ppm) in wash water [6, 13]: 7.4 ppm
- PA (ppm) in wash water [6, 14]: 81.4 ppm
- Peroxide (ppm) in wash water [6, 14]: 7.3 ppm
- PA (ppm) in wash water [6, 15]: 81.0 ppm
- Peroxide (ppm) in wash water [6, 15]: 7.3 ppm
- PA (ppm) in wash water [6, 16]: 80.5 ppm
- Peroxide (ppm) in wash water [6, 16]: 7.1 ppm
- PA (ppm) in wash water [6, 17]: 79.6 ppm
- Peroxide (ppm) in wash water [6, 17]: 6.9 ppm
- PA (ppm) in wash water [6, 18]: 78.7 ppm
- Peroxide (ppm) in wash water [6, 18]: 6.9 ppm
- PA (ppm) in wash water [6, 19]: 78.4 ppm
- Peroxide (ppm) in wash water [6, 19]: 6.9 ppm
- PA (ppm) in wash water [6, 20]: 77.7 ppm
- Peroxide (ppm) in wash water [6, 20]: 6.4 ppm
- PA (ppm) in wash water [6, 21]: 76.1 ppm
- Peroxide (ppm) in wash water [6, 21]: 6.4 ppm
- PA (ppm) in wash water [6, 22]: 75.4 ppm
- Peroxide (ppm) in wash water [6, 22]: 6.1 ppm
- PA (ppm) in wash water [6, 23]: 74.7 ppm
- Peroxide (ppm) in wash water [6, 23]: 6.0 ppm
- PA (ppm) in wash water [6, 24]: 73.7 ppm
- Peroxide (ppm) in wash water [6, 24]: 6.0 ppm
- PA (ppm) in wash water [6, 25]: 73.1 ppm
- Peroxide (ppm) in wash water [6, 25]: 6.0 ppm
- Aerobic Plate Counts after wash [7]: 2.7 Log cfu/g
- Log Reduction of indigenous microorganisms [7]: 0.7 log10

Structure (SMILES): OCl [Sodium hypochlorite (Chlorine bleach), Sodium hypochlorite]
- Oxidation Capacity [1]: 1.36 eV

Structure (SMILES): O=[O+][O-] [Ozone]
- Oxidation Capacity [1]: 2.07 eV
